Values quoted from earlier work in patent US12295943B2 (Closed Loop Medicine Ltd., priority 2023, dated 2025).
Like-named read-outs stand apart in the source and are kept apart here. Values belong to the compound of their own block, whether it stands above or below them.

Assays:
stroke = settings: AF patients
[1] = test system: metabolic enzymes or transport mechanisms; settings: in vitro
[2] = in vivo
[3] = test system: patients with nonvalvular AF
[4] = not given; remark: listed apart in the source
[5] = for trough plasma level range: steady state
[6] = not given; remark: listed apart in the source
[7] = not given; remark: listed apart in the source
CYP3A4 = CYP3A4 (Homo sapiens, UniProt P08684); settings: CYP3A4, linked with P-glycoprotein transporter
[8] = high body weight (≥120 kg) vs reference group
[9] = low body weight (≤50 kg) vs reference group (65-85 kg)

Chain of CYP3A4 (P08684 whole entry): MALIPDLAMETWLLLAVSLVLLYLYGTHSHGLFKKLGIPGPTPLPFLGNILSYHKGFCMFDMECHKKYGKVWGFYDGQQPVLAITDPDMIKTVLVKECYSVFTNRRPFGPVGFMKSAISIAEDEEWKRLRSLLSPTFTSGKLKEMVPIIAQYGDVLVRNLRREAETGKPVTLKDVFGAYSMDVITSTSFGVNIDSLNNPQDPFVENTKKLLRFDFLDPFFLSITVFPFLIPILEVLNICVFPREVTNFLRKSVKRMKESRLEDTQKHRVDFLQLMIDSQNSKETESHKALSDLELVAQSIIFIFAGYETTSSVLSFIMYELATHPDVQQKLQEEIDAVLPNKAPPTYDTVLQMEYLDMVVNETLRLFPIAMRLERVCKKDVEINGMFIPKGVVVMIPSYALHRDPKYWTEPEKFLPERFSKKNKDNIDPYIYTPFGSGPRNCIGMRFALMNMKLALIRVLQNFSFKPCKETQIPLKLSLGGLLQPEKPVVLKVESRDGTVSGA

SMILES: CC(=O)CC(c1ccccc1)c1c(O)c2ccccc2oc1=O (stereo not shown) [warfarin]
reduction of stroke (stroke): about 60%

SMILES: COc1ccc(-n2nc(C(N)=O)c3c2C(=O)N(c2ccc(N4CCCCC4=O)cc2)CC3)cc1 [Apixaban]
inhibition or induction of metabolic enzymes or transport mechanisms [1]: does not inhibit or induce
principle side effect [2]: increased bleeding tendency, with undesired haemorrhage, sometimes fatal
efficacy compared with warfarin [3]: superior to warfarin
risk of intracranial bleeds compared with warfarin [3]: small reduction
lower apixaban AUC0-∞ [8]: ~23%
lower apixaban Cmax [8]: approximately 31%
higher AUC0-∞ [9]: ~20%
higher maximum apixaban plasma concentration (Cmax) [9]: approximately 27%
increase in mean apixaban AUC 0-∞ ([4]; with Clarithromycin): 1.6 fold
increase in mean apixaban Cmax ([4]; with Clarithromycin): 1.3 fold
increase in AUC ([4]; with Clarithromycin (Table 2)): ~50% increase in Cmax and AUC
increase in Cmax ([4]; with Clarithromycin (Table 2)): ~50% increase in Cmax and AUC
increase in AUC ([4]; with Diltiazem): ~40% increase in AUC
increase in AUC ([4]; with Ketaconazole or other CYP 3A4/PgP inhibitors): ~100% increase in AUC
increase in exposure (drug levels) ([4]; with Ketoconazole (CYP 3A4 inhibitor)): ~2 fold
decrease in AUC ([4]; with Riampin or other CYP 3A4 inducers): ~50% decrease in AUC
decrease in exposure ([4]; with rifampicin): ~50%
trough plasma level range ([5]; 2.5 mg dose): 20 to 180 ng/mL
trough plasma level range ([5]; 5 mg dose): 10 to 310 ng/mL
variability in drug plasma levels across the population for a given dose ([5]; in vivo): 6-10 FOLD
observed drug plasma levels lower in the evening than in the morning ([6]; evening versus morning): ~50%
coefficient of variance for AUC of the plasma level time profile ([6]; healthy human volunteers): ~30%
coefficient of variance for Cmax ([6]; healthy human volunteers): ~30%
direct intestinal excretion into the faeces, unchanged drug ([6]; human, in vivo): 34%
dose excreted by renal route ([6]; human, in vivo): 20-25%
elimination via metabolism ([6]; human, in vivo): ~20%
renal clearance ([6]; human, in vivo): 15 mL/min
renal clearance as share of GFR ([6]; human, in vivo): ~12 % of GFR
total body clearance ([6]; human, in vivo): 50 mL/min
total body clearance as share of liver blood flow ([6]; human, in vivo): ~3 % liver blood flow
absolute oral bioavailability ([6]; human, in vivo, po): ~50%
half-life after iv or oral solution ([6]; iv or oral solution): ~5 h
time of maximum concentration after oral administration ([6]; oral, without food): 3 to 4 h
time of maximum concentration, range ([6]; oral, without food): 1 to 6 h
increase in levels at steady state compared to the first dose ([6]; repeated administration): ~65%
time to steady state after repeated administration ([6]; repeated administration): ≤ 3 days
delay of maximum concentration by food ([6]; with food): ~1 h
time of maximum concentration with food, range ([6]; with food): 1 to 9 h
AGEP ([7]; age coefficient on non-renal clearance, AGEREF 60 years): 0.267
VC/F ([7]; apparent central volume of distribution): 32.1 L
Q/F ([7]; apparent inter-compartmental clearance): 1.62 L/h
VP/F ([7]; apparent peripheral volume of distribution): 19.8 L
CLNR/F (Ref) ([7]; non-renal component of apparent clearance): 2.52 L/h
θ1, θ2 ([7]; power coefficients for CrCL versus CL/F): 1.0
┌ ([7]; shape parameter of dose versus relative bioavailability): 0.853
WTP ([7]; weight coefficient on Vc/F, WTref 85.0 kg): 0.523
substrate status (CYP3A4): substrate primarily for CYP3A4

share cleared through the kidneys ([6]; human, in vivo): ~80%
SMILES: [H]/N=C(/N)c1ccc(NCc2nc3cc(C(=O)N(CCC(=O)O)c4ccccn4)ccc3n2C)cc1 [dabigatran]
